# Laboratory results as given in paper PMC9828254, “Identification of Dihydroorotate Dehydrogenase Inhibitors Using the Cell Painting Assay” (Chembiochem, 2022).
# Entries after “also recorded” stand apart in the source; their conditions may differ.
# Legend:
# [1] = system: U2OS cells; assay: Cell Painting assay (CPA), morphological fingerprints; format: cell-based, human; settings: for biosimilarity (BioSim) to IPP/CNRS-A017 / biosimilarity (BioSim) to brequinar: concentration not given, similar if biosimilarity >75 %; for BioSim [%] (biosimilarity) to brequinar: reference fingerprint brequinar 10 μM; for BioSim [%] (biosimilarity) to IPP/CNRS-A017: reference fingerprint IPP/CNRS-A017 5 μM
# Experimental: Therefore, the definition of bioactivity clusters is crucial for proper hypothesis generation for uncharacterized small molecules that are subjected to the CPA and requires thorough inspection of the CPA fingerprints of reference compounds.[[2b], [9], [10]] […] For the CPA, human osteosarcoma U2OS cells were treated with compounds for 20 h prior to detection of cellular components and compartments (DNA, RNA, mitochondria, Golgi, endoplasmic reticulum (ER), actin, plasma membrane) using six different dyes. Morphological features are extracted and differences to the control (cells that were treated with DMSO) are expressed as Z scores. The CPA fingerprints used in this study compile Z scores for 579 features. […] Myxothiazol is an inhibitor of complex III of the mitochondrial electron transport chain.[15] Whereas de novo biosynthesis of pyrimidines takes place in the cytosol, DHODH is the only enzyme of the pyrimidine biosynthesis pathway that is localized at the inner mitochondrial membrane.[16] DHODH catalyzes the oxidation of dihydroorotate (DHO) to orotate by transferring electrons from DHO via the cofactor FMN to ubiquinone to yield ubiquinol. Electrons from ubiquinol are transferred further to complex III (cytochrome b,c1 complex), thereby recycling […] that is required for DHODH activity. In this way, pyrimidine biosynthesis is tightly coupled to the activity of complex III, which ensures that pyrimidine nucleotides and, thus, DNA and RNA are synthesized only if cells are supplied with sufficient amount of ATP via the mitochondrial respiratory chain. Alternatively, cells can replenish their pyrimidine pools via the salvage pathway by uptake of circulating pyrimidines.[5] Whereas proliferating cells rely on de novo pyrimidine biosynthesis to meet the high demand for nucleotides, the salvage pathway is used by resting and fully differentiated cells.[5]
# The cell painting assay: The Cell Painting assay[25] was performed as described previously.[[9a], [26]] U2OS medium (5 μL) was added to each well of a 384‐well plate (PerkinElmer CellCarrier‐384 Ultra) prior to addition of 1,600 U2OS cells per well and incubation for 4 h at 37 °C. Standard stock concentration of compounds was 10 mM. […] Compounds were added to the cells using the Echo 520 acoustic dispenser (Labcyte) followed by incubation for 20 h at 37 °C. Subsequently, mitochondria were stained with 0.1 μg/μL Mito Tracker Deep Red for 30 min at 37 °C in the dark. Cells were fixed using 3.7 % formaldehyde (in PBS) for 20 min at 37 °C in the dark. Cells were washed three times using PBS before permeabilization using Triton X‐100 for 15 min 37 °C in the dark. After three additional washing steps, 25 μL of a staining solution were added to each well, which contained 1 % BSA, 5 μL/mL Phalloidin (Alexa594 conjugate, Thermo Fisher Scientific, A12381), 25 μg/mL Concanavalin A (Alexa488 conjugate, Thermo Fisher Scientific, Cat. No. C11252), 5 μg/mL Hoechst 33342 (Sigma, Cat. No. B2261‐25 mg), 1.5 μg/mL WGA‐Alexa594 conjugate (Thermo Fisher Scientific, Cat. No. W11262) and 1.5 μM SYTO 14 solution (Thermo Fisher Scientific, Cat. No. S7576). Plates were incubated for 30 min at 37 °C in the dark and washed three times with PBS. Plates were sealed and centrifuged for 1 min at 500 rpm. The plates were prepared in triplicates with shifted layouts to reduce plate effects and imaged using a Micro XL High‐Content Screening System (Molecular Devices) in 5 channels (DAPI: Ex350‐400/Em410‐480; FITC: Ex470‐500/Em510‐540; Spectrum Gold: Ex520‐545/Em560‐585; TxRed: Ex535‐585/Em600‐650; Cy5: Ex605‐650/Em670‐715) with 9 sites per well and 20× magnification (binning 2).
# Generated images were processed with the CellProfiler package[27] (https://cellprofiler.org, version 3.0.0) on a computing cluster of the Max Planck Society to extract 1716 cell features. The data was then further aggregated as medians per well (9 sites→1 well), then over the three replicates.
# [2] = system: HCT116 cells; assay: DHODH rescue assay / cell growth (cell confluence, IncuCyte); format: cell-based; settings: for rescue of cell growth by uridine: 100 μM uridine, 96 h; for rescue of cell growth by orotate (OA): 1.5 mM OA; for influence on cell growth (cell confluence): monitored over 96 h
# Experimental: Figure 3 Influence of compounds on cell growth and DHODH activity. (A–C) HCT116 cells were treated with the compounds or DMSO as a control in presence or absence of 100 μM uridine. Cell confluence as a measure of cell growth was monitored over 96 h using IncuCyte ZOOM/S3. (A) Brequinar (BRQ). (B) Myxothiazol (MXT). […] (D–E) In vitro DHODH activity. […] (F) Influence of compound 7 on complex III activity. All data are mean values of three biological replicates (n=3)±SD.
# (§1) DHODH rescue assay: 2,000 HCT116 or U2OS cells per well were seeded in a clear 96‐well plate and incubated as described above overnight prior to treatment. The next day, the medium was replaced by fresh compound or DMSO containing medium supplemented with control solvent or uridine (100 μM), OA (1.5 mM) or DHO (1.5 mM). Cell growth was monitored every 2 h for a total of 96 h after treatment start using an IncuCyte S3 (Essen BioScience). The cell confluence was quantified as a measure of cell growth using the IncuCyte S3 software (Essen BioScience).
# [3] = system: U2OS cells; settings: 100 μM uridine
# Experimental: as §1
# [4] = target: T1, Human DHODH (Homo sapiens, UniProt Q02127); assay: DHODH enzymatic assay (DCPIP reduction); format: biochemical; settings: for inhibition at 10 µM: 30 min preincubation, read-out: reduction (inhibition) of in vitro DHODH activity
# T1 construct: 40 μL of purified DHODH (aa31–395, final concentration: 1.25 μg/mL); made in house; host or cells: E. coli BL21 (DE3)
# T1 sequence (Q02127 31-395): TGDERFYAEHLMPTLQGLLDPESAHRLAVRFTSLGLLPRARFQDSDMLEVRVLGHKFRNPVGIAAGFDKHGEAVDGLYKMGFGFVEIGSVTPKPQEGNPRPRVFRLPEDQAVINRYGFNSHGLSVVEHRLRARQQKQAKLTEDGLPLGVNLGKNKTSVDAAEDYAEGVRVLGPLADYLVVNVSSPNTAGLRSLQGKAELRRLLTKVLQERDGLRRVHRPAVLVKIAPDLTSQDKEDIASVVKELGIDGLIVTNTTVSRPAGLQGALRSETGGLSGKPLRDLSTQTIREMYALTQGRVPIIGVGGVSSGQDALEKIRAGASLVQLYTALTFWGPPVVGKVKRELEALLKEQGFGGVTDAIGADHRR
# Experimental: Expression was induced by adding 0.8 mM IPTG (AppliChem, A1008,0025) and temperature was reduced to 28 °C for 6 hours. […] The clarified supernatant was loaded to the column and washed with PBS (1 mL/min) for 2 h, followed by elution with 10 mM L‐glutathione (Sigma Aldrich, G4251) in PBS. The GST tag was not removed for further analysis. Factions containing hDHODH‐GST protein were pooled, concentrated with centrifugal filters (Ultra‐50 K, Merck Millipore, UFC905096) and shock‐frozen for further analysis. Protein concentration was determined by Bradford measurement.
# DHODH enzymatic assay: Enzymatic activity of DHODH was assessed by monitoring the reduction of 2,6‐dichlorophenolinindophenol (DCPIP), which is coupled to the oxidation of dihydroorotate by DHODH. […] The reaction was initiated by adding 50 μL mastermix (2 mM L‐dihydroorotic acid, 0.2 mM decylubiquonone, 0.12 mM 2,6 dichlorphenolindophenol (DCPIP) in assay buffer). DCPIP reduction was monitored at λ=600 nm using Tecan Spark plate reader for 20 min.
# [5] = system: U2OS cells; design: method as in earlier work; settings: ref 9b; cited from earlier work
# [6] = target: T2, complex III (Bos taurus, UniProt P00157); assay: MitoTox complex II+III OXPHOS activity assay kit; format: biochemical; settings: bovine heart mitochondria; Figure 3F
# T2 construct: tissue Abcam ab109905; host or cells: bovine heart mitochondria
# Experimental: MitoTox™ complex II+III OXPHOS activity assay kit: The assay was performed using the MitoTox™ Complex II+III OXPHOS Activity Assay Kit (ab109905, Abcam) according to the manufacturer's instructions. Compounds or DMSO as a control was mixed with succinate solution (electron donor) and oxidized cytochrome c (electron acceptor) in the presence of complex IV inhibitor […] (2 mM, 60168, Sigma Aldrich) and complex I inhibitor Rotenone (12 μM, R8875, Sigma Aldrich). To start the electron transfer reaction, bovine heart mitochondria (0.03 mg/mL) were added to the mixture and conversion of oxidized cytochrome c into the reduced form was monitored for 5 min at 550 nm using the Tecan Spark plate reader.
# [7] = Conc 10 μM, 20 h, percentage of significantly altered features
# [8] = Homo sapiens, U2OS, Conc 10 μM, 20 h, read-out: Cell count [%]
# [9] = 96 h, 2, 6, 7 at 10 μM, 4 at 30 μM
# [10] = complex III inhibitors, Figure S8, concentration not given
smiles,measurement,setting,value
"Cc1c(-c2ccc(-c3ccccc3F)cc2)nc2ccc(F)cc2c1C(=O)O [Brequinar, brequinar]",Ind [%] (induction),[1]; [7],36%
same,viability at 10 µM,[1]; [8],89%
same,biosimilarity to the fingerprint of methotrexate,"[1]; full fingerprints, Figure S3A and S3B",lack of biosimilarity
same,BioSim [%] (biosimilarity) to myxothiazol,"[1]; reference fingerprint myxothiazol 10 μM, compound Conc 10 μM",84%
same,rescue of cell growth by uridine,[2],completely rescue; also recorded: full cell growth recovery
same,rescue of cell growth by dihydroorotate (DHO),"[2]; 1.5 mM DHO, 96 h, 2, 6, 7 at 10 μM, 4 at 30 μM",could not restore
same,rescue of cell growth by orotate (OA),[2]; [9],rescued normal cell proliferation
same,rescue of cell growth by uridine,[3],completely rescue
Cc1c(Oc2ccc(F)cc2)c(OC(C)C)nn1-c1ccc(C2CC2)cn1 [Compound 1],Ind [%] (induction),"[1]; Conc 5 μM, 20 h",10%
same,viability at 5 µM,"[1]; Homo sapiens, U2OS, Conc 5 μM, 20 h, read-out: Cell count [%]",105%
same,biosimilarity (BioSim) to IPP/CNRS-A017,[1],not biosimilar
same,biosimilarity (BioSim) to brequinar,[1],not biosimilar
same,BioSim [%] (biosimilarity) to brequinar,[1]; compound Conc 5 μM,39%
CN1C(=O)[C@@]2(C(=O)N(Cc3ccncc3)c3ccc(OC(F)(F)F)cc32)c2ccccc21 [Compound 2],"influence on in vitro DHODH activity, in words",[4]; 10 μM compound,only moderately inhibited
same,inhibition at 10 µM,[4]; 10 μM compound,27 to 44%
same,viability at 10 µM,[1]; [8],90%
same,rescue of cell growth by orotate (OA),[2]; [9],relieved
COc1ccc2[nH]c3c(c2c1)CCO[C@]31CC[C@@]2(Oc3c(Cl)c(OC)cc(OC)c3C2=O)[C@H](C)C1 [Compound 3],inhibition at 10 µM,[4]; 10 μM compound,> 50%
same,viability at 3 µM,"[1]; Homo sapiens, U2OS, Conc 3 μM, 20 h, read-out: Cell count [%]",94%
COc1cc(OC)c2c(c1Cl)O[C@@]1(CC[C@@]3(C[C@H]1C)OCCc1c3[nH]c3ccc(C)cc13)C2=O [Compound 4],"influence on in vitro DHODH activity, in words",[4]; 10 μM compound,only moderately inhibited
same,inhibition at 10 µM,[4]; 10 μM compound,27 to 44%
same,viability at 10 µM,[1]; [8],81%
same,rescue of cell growth by orotate (OA),[2]; [9],relieved
O=C(Nc1cccnc1)N1Cc2cccc(c2)CN(S(=O)(=O)C(F)(F)F)CC/C=C/C[C@@H]1CO [Compound 5],CPA fingerprint similarity to the iron chelator deferoxamine,[5],80%
same,cells in S phase (analysis of CPA fingerprints),[5],accumulation of cells in S phase; also recorded: increase in the percentage of cells in S phase
same,inhibition at 10 µM,[4]; 10 μM compound,> 50%
same,IC50,"[4]; dose-response, n=3 ± SD, read-out: IC50 for inhibition of DHODH",6.2 ± 3 µM
same,viability at 10 µM,[1]; [8],82%
same,BioSim [%] (biosimilarity) to IPP/CNRS-A017,[1]; compound Conc 10 μM,87%
same,BioSim [%] (biosimilarity) to brequinar,[1]; compound Conc 10 μM,84%
Brc1ccc2[nH]c3c(c2c1)CCOC31CCCCC1 [Compound 6],CPA fingerprint similarity to the iron chelator deferoxamine,[5],81%
same,cells in S phase (analysis of CPA fingerprints),[5],accumulation of cells in S phase; also recorded: increase in the percentage of cells in S phase
same,"influence on in vitro DHODH activity, in words",[4]; 10 μM compound,only moderately inhibited
same,inhibition at 10 µM,[4]; 10 μM compound,27 to 44%
same,viability at 10 µM,[1]; [8],88%
same,BioSim [%] (biosimilarity) to IPP/CNRS-A017,[1]; compound Conc 10 μM,87%
same,BioSim [%] (biosimilarity) to brequinar,[1]; compound Conc 10 μM,84%
same,rescue of cell growth by orotate (OA),[2]; [9],relieved
CC(=O)Oc1c(C[C@]23CCOC4(CCCCC4)C2=Nc2ccc(Br)cc23)occc1=O [Compound 7],"influence on in vitro DHODH activity, in words",[4]; 10 μM compound,inactive; also recorded: did not have any influence
same,viability at 10 µM,[1]; [8],93%
same,rescue of cell growth by orotate (OA),[2]; [9],relieved
same,influence on complex III activity,[6],did not impair
"CO/C(=C/C(N)=O)[C@H](C)[C@H](/C=C/c1csc(-c2csc([C@@H](C)/C=C/C=C/C(C)C)n2)n1)OC [Myxothiazol, myxothiazol]","influence on in vitro DHODH activity, in words",[4]; [10],do not inhibit
same,Cell count [%],"[1]; Conc 10 μM, 20 h",73%
same,Ind [%] (induction),[1]; [7],46%
same,biosimilarity (BioSim) to brequinar,[1],biosimilar
same,rescue of cell growth by uridine,[2],only partly restored normal cell growth
same,influence on cell growth (cell confluence),[2],suppressed the growth
same,influence on cell growth (cell confluence),[2]; listed as myxothiazol,growth arrest
"NC(=O)c1[nH]nc([C@@H]2O[C@H](CO)[C@@H](O)[C@H]2O)c1O [Pyrazofurin, pyrazofurin]",viability at 10 µM,[1]; [8],97%
same,biosimilarity (BioSim) to IPP/CNRS-A017,[1],high biosimilarity
same,biosimilarity (BioSim) to brequinar,[1],high biosimilarity
same,rescue of cell growth by uridine,[2],fully rescued
same,influence on cell growth (cell confluence),[2],suppressed the growth
CCCCCC[C@H]1C(=O)O[C@H](C)[C@H](NC(=O)c2cccc(NC=O)c2O)C(=O)O[C@@H](C)[C@@H]1OC(=O)CC(C)C [antimycin A],"influence on in vitro DHODH activity, in words",[4]; [10],do not inhibit
same,biosimilarity (BioSim) to brequinar,[1],biosimilar
same,influence on cell growth (cell confluence),[2],growth arrest
